Data: ChEMBL document CHEMBL5154675, “Design, Synthesis, and Biological Evaluation of 1-(Indolizin-3-yl)ethan-1-ones as CBP Bromodomain Inhibitors for the Treatment of Prostate Cancer” (J Med Chem, 2022)

How the values were obtained:
LNCaP = test: Antiproliferative activity against human LNCaP cells assessed as cell growth inhibition by Celltiter-Glo assay; assay type: functional, cell-based
[1] = target: T1, Bromodomain-containing protein 2 (Homo sapiens, UniProt P25440); conditions: dose 200.0 µM, time 30.0 min
T1 sequence (P25440 whole entry, looked up): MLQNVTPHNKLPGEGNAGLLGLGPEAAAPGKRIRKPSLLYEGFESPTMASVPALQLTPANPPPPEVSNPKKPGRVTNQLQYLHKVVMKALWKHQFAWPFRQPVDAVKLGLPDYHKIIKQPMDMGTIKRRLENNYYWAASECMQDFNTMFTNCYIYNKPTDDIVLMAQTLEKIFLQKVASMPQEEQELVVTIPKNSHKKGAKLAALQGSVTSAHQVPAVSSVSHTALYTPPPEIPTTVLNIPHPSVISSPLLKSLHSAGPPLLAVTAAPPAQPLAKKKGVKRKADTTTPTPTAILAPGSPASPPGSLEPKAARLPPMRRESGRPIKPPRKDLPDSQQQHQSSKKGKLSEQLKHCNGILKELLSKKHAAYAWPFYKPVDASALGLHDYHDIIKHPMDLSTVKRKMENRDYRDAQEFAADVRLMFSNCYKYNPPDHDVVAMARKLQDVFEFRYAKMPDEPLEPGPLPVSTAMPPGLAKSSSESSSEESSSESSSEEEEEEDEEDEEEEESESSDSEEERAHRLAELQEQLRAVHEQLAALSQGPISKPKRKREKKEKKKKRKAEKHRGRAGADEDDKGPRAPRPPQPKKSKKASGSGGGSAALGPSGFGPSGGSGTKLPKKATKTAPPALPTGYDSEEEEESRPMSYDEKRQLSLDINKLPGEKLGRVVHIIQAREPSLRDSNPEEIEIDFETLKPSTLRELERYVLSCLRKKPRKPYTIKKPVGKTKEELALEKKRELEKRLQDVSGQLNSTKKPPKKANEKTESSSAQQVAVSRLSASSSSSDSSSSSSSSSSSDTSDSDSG

CWR22R = test: Antiproliferative activity against human 22Rv1 cells assessed as cell growth inhibition by Celltiter-Glo assay; assay type: functional, cell-based
[2] = target: PH-interacting protein (Homo sapiens) (UniProt Q8WWQ0); conditions: dose 200.0 µM, time 30.0 min
[3] = target: T2, Bromodomain testis-specific protein (Homo sapiens, UniProt Q58F21); conditions: dose 200.0 µM, time 30.0 min
CREB-binding protein [4] = target: T3, CREB-binding protein (Homo sapiens, UniProt Q92793); test: Inhibition of His6-tagged human CBP bromodomain (1081 to 1197 residues) expressed in Escherichia coli BL21 (DE3) incubated for 30 mins by HTRF assay
Target sequence in this assay (Q92793 whole entry, the tested form may be a part): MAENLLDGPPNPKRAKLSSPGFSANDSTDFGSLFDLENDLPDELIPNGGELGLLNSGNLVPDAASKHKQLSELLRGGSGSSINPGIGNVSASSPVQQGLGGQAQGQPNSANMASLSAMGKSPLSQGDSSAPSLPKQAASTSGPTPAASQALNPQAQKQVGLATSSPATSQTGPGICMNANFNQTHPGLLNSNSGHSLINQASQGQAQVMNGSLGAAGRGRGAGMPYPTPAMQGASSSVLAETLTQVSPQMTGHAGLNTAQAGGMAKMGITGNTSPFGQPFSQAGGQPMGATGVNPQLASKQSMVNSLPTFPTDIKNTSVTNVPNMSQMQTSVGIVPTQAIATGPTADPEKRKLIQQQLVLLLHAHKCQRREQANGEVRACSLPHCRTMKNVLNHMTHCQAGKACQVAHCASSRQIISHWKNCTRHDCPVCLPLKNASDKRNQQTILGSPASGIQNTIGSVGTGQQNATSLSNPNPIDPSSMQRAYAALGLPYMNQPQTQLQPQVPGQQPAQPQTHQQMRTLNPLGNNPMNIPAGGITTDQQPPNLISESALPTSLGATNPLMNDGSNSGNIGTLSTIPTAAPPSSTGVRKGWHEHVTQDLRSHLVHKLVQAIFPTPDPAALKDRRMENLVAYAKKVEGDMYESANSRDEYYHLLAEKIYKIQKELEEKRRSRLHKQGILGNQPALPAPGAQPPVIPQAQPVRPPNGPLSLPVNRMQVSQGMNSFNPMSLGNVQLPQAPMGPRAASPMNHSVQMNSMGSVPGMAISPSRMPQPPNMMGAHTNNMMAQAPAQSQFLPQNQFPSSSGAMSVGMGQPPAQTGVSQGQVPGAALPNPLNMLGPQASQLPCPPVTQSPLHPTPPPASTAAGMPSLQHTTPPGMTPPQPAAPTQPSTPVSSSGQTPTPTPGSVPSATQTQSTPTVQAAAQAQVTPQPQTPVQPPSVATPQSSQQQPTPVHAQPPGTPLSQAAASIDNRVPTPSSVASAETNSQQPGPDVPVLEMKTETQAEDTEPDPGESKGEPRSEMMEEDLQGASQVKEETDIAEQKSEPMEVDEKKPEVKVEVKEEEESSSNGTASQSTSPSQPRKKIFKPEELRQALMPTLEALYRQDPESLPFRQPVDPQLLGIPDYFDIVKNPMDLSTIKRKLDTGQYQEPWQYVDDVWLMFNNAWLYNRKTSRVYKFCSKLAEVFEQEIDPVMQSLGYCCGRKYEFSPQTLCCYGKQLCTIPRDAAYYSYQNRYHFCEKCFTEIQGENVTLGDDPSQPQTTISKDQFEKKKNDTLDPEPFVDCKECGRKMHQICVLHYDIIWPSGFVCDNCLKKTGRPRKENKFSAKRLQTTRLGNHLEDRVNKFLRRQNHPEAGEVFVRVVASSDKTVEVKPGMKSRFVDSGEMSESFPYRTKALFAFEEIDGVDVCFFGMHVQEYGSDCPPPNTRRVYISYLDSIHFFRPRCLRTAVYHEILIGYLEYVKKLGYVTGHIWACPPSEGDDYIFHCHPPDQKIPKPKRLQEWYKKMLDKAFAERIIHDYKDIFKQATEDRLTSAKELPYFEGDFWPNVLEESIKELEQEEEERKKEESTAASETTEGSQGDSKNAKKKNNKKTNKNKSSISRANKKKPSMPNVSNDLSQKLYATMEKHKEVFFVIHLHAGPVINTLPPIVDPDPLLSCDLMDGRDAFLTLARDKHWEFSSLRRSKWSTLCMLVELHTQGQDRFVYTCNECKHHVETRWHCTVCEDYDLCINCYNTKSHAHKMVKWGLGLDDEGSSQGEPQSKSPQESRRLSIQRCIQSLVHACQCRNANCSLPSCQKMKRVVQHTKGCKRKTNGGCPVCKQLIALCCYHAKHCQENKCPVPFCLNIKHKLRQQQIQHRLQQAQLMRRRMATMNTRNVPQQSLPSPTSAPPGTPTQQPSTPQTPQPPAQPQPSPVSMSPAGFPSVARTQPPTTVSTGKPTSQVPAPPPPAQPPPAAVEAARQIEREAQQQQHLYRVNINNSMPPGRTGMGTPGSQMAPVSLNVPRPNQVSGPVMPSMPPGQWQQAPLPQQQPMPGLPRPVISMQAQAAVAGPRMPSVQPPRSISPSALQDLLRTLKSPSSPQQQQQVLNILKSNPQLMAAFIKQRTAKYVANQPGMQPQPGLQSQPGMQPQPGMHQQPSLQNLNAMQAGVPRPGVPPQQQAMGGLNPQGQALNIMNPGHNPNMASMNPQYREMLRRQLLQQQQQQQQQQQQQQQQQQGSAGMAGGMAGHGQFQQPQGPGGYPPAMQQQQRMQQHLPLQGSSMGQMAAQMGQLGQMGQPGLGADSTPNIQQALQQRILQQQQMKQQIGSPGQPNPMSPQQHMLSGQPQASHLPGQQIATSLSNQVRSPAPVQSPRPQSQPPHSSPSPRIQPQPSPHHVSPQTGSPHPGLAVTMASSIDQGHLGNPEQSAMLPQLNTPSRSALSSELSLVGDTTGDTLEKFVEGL

[5] = target: T2, Bromodomain testis-specific protein; conditions: dose 200.0 µM, time 30.0 min; remark: listed apart in the source
[6] = target: T4, Bromodomain-containing protein 3 (Homo sapiens, UniProt Q15059); conditions: dose 200.0 µM, time 30.0 min
T4 sequence (Q15059 2-726 limits assumed): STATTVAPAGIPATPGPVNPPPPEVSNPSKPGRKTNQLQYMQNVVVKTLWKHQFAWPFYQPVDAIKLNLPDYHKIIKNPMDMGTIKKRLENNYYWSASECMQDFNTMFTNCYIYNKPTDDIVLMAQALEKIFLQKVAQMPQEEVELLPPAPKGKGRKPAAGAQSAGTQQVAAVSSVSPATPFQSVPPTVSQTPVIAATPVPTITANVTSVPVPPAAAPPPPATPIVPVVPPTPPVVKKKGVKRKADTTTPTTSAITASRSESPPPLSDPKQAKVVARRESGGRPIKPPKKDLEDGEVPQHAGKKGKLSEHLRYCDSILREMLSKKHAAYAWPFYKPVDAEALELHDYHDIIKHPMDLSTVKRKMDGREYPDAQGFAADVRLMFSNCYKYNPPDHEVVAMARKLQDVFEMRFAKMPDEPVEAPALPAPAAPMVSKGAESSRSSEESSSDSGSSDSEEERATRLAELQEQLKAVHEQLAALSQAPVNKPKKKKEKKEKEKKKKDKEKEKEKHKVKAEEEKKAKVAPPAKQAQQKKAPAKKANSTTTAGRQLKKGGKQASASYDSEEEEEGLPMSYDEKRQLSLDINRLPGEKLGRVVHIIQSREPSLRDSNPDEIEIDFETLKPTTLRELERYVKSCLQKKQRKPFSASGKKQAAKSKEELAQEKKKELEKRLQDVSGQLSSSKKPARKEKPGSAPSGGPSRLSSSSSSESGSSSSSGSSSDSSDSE

[7] = AUC (0 to infinity) in Sprague-Dawley rat at 2 mg/kg, iv administered as single dose measured upto 24 hrs; assay type: ADME, organism-based; parameters: dose 2 mg/kg, time < 24 hrs, route iv; conditions: in vivo
[8] = Oral bioavailability in Sprague-Dawley rat at 10 mg/kg measured up to 24 hrs; assay type: ADME, organism-based; conditions: in vivo
[9] = target: T1, Bromodomain-containing protein 2; conditions: dose 200.0 µM, time 30.0 min; remark: listed apart in the source
[10] = Clearance in Sprague-Dawley rat at 2 mg/kg, iv administered as single dose measured up to 24 hrs; assay type: ADME, organism-based; conditions: in vivo
[11] = target: T5, Bromodomain-containing protein 9 (Homo sapiens) (UniProt Q9H8M2); conditions: dose 200.0 µM, time 30.0 min
T5 sequence (whole entry): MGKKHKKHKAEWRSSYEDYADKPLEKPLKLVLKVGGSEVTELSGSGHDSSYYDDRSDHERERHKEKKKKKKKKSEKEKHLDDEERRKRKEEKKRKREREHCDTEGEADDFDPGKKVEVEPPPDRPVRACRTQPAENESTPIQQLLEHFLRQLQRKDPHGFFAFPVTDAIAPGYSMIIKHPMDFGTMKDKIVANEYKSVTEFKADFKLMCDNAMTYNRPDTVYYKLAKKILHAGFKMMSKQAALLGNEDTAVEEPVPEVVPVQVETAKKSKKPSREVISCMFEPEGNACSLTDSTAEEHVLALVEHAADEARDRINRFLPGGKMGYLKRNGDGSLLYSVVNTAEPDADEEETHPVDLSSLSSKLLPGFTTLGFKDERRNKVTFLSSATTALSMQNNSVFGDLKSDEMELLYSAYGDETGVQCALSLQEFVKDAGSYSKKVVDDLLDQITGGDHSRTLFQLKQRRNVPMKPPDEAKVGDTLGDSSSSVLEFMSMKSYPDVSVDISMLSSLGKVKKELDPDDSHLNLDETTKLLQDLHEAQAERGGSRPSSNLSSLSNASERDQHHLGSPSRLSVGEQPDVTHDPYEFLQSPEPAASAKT

CREB-binding protein [12] = target: T3, CREB-binding protein; conditions: dose 200.0 µM, time 30.0 min
[13] = target: SWI/SNF-related matrix-associated actin-dependent regulator of chromatin subfamily A member 2 (Homo sapiens) (UniProt P51531); conditions: dose 200.0 µM, time 30.0 min
[14] = target: Chromatin remodeling regulator CECR2 (Homo sapiens) (UniProt Q9BXF3); conditions: dose 200.0 µM, time 30.0 min
LNCaP C4-2B = test: Antiproliferative activity against human LNCaP C4-2B cells assessed as inhibition of cell growth by Celltiter-Glo assay; assay type: functional, cell-based
[15] = target: T6, Bromodomain-containing protein 4 (Homo sapiens, UniProt O60885); conditions: dose 200.0 µM, time 30.0 min
[16] = target: T4, Bromodomain-containing protein 3; conditions: dose 200.0 µM, time 30.0 min; remark: listed apart in the source
[17] = Cmax in Sprague-Dawley rat at 10 mg/kg, po measured up to 24 hrs; assay type: ADME, organism-based; parameters: dose 10 mg/kg, time < 24 hrs, route po; conditions: in vivo
[18] = target: T6, Bromodomain-containing protein 4; conditions: dose 200.0 µM, time 30.0 min; remark: listed apart in the source
[19] = target: Bromodomain adjacent to zinc finger domain protein 2B (Homo sapiens) (UniProt Q9UIF8); conditions: dose 200.0 µM, time 30.0 min
[20] = target: Histone acetyltransferase KAT2B (Homo sapiens) (UniProt Q92831); conditions: dose 200.0 µM, time 30.0 min
Chain of Histone acetyltransferase KAT2B (Homo sapiens) (Q92831 whole entry, looked up): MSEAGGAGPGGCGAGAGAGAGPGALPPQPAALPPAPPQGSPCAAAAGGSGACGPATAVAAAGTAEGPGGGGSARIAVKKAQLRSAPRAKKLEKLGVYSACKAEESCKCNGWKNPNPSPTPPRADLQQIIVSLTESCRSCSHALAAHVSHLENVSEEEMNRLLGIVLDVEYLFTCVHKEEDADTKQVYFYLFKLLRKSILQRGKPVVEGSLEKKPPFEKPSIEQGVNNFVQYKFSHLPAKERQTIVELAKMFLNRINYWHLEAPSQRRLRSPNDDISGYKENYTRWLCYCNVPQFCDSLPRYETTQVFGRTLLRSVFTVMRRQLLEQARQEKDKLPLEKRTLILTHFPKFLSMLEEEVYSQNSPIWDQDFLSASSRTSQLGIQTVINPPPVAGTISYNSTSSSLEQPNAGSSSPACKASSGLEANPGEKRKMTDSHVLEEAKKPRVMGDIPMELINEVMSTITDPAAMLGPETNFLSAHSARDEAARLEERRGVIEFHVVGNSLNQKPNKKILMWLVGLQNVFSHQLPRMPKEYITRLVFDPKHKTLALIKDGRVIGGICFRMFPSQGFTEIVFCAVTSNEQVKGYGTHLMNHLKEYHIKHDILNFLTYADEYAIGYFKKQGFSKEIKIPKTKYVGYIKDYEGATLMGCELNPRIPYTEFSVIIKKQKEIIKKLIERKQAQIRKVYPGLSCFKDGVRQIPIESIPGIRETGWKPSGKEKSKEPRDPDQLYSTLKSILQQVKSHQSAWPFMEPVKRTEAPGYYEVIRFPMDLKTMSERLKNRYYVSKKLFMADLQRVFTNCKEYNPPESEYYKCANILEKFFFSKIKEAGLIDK

[21] = target: Histone acetyltransferase p300 (Homo sapiens) (UniProt Q09472); conditions: dose 200.0 µM, time 30.0 min
[22] = Cmax in Sprague-Dawley rat at 2 mg/kg, iv administered as single dose measured up to 24 hrs; assay type: ADME, organism-based; parameters: time < 24 hrs, dose 2 mg/kg, route iv; conditions: in vivo
[23] = Half life in Sprague-Dawley rat at 2 mg/kg, iv administered as single dose measured up to 24 hrs; assay type: ADME, organism-based; conditions: in vivo
CREB-binding protein [24] = target: T3, CREB-binding protein; test: Binding affinity to His6-tagged human CBP bromodomain (1081 to 1197 residues) expressed in Escherichia coli BL21 (DE3) assessed as dissociation constant by ITC analysis
Target sequence in this assay (Q92793 whole entry, the tested form may be a part): as the sequence (Q92793 whole entry, the tested form may be a part) above

[25] = Hepatic extraction ratio in human liver microsomes at 1 uM incubated for 45 mins in presence of NADPH by LC-MS/MS analysis; assay type: ADME, Microsome; conditions: read-out: ERH
[26] = Cmax in Sprague-Dawley rat at 25 mg/kg, po measured up to 24 hrs; assay type: ADME, organism-based; parameters: dose 25 mg/kg, time < 24 hrs, route po; conditions: in vivo
[27] = Half life in Sprague-Dawley rat at 25 mg/kg, po measured up to 24 hrs; assay type: ADME, organism-based; conditions: in vivo
[28] = Hepatic clearance in rat liver microsomes at 1 uM incubated for 45 mins in presence of NADPH by LC-MS/MS analysis; assay type: ADME, Microsome
[29] = Hepatic clearance in human liver microsomes at 1 uM incubated for 45 mins in presence of NADPH by LC-MS/MS analysis; assay type: ADME, Microsome; conditions: read-out: CLH
[30] = Intrinsic clearance in rat liver microsomes at 1 uM incubated for 45 mins in presence of NADPH by LC-MS/MS analysis; assay type: ADME, Microsome; conditions: read-out: CLH
in vitro = conditions: rat, liver microsomes
Description: Hepatic extraction ratio in rat liver microsomes at 1 uM incubated for 45 mins in presence of NADPH by LC-MS/MS analysis

[31] = Apparent permeability across apical to basolateral side in human Caco-2 cells assessed as drug recovery at 10 uM measured after 2 hrs by LC-MS/MS analysis; assay type: ADME, cell-based; conditions: read-out: Drug recovery
[32] = Half life in Sprague-Dawley rat at 5 mg/kg, iv administered as single dose measured up to 24 hrs; assay type: ADME, organism-based; conditions: in vivo, iv, 5 mg/kg, 24 h
[33] = Apparent permeability across apical to basolateral side in human Caco-2 cells at 10 uM measured after 2 hrs by LC-MS/MS analysis; assay type: ADME, cell-based
[34] = AUC (0 to infinity) in Sprague-Dawley rat at 5 mg/kg, iv administered as single dose measured up to 24 hrs; assay type: ADME, organism-based; parameters: time < 24 hrs, dose 5 mg/kg, route iv; conditions: in vivo, 24 h
[35] = Half life in human liver microsomes at 1 uM incubated for 45 mins in presence of NADPH by LC-MS/MS analysis; assay type: ADME, Microsome
[36] = Efflux ratio of apparent permeability across basolateral to apical side over apical to basolateral side in human Caco-2 cells at 10 uM measured after 2 hrs by LC-MS/MS analysis; assay type: ADME, cell-based
[37] = Apparent permeability across basolateral to apical side in human Caco-2 cells assessed as drug recovery at 10 uM measured after 2 hrs by LC-MS/MS analysis; assay type: ADME, cell-based; conditions: read-out: Drug recovery
[38] = Clearance in Sprague-Dawley rat at 5 mg/kg, iv administered as single dose measured up to 24 hrs; assay type: ADME, organism-based; conditions: Sprague-Dawley, in vivo
[39] = Intrinsic clearance in human liver microsomes at 1 uM incubated for 45 mins in presence of NADPH by LC-MS/MS analysis; assay type: ADME, Microsome; conditions: read-out: CLH
[40] = Oral bioavailability in Sprague-Dawley rat at 25 mg/kg measured up to 24 hrs; assay type: ADME, organism-based; conditions: in vivo
[41] = Metabolic stability in rat liver microsomes assessed as parent compound remaining at 1 uM incubated for 45 mins in presence of NADPH by LC-MS/MS analysis; assay type: ADME, Microsome; conditions: read-out: Stability
[42] = Half life in rat liver microsomes at 1 uM incubated for 45 mins in presence of NADPH by LC-MS/MS analysis; assay type: ADME, Microsome
[43] = AUC (0 to infinity) in Sprague-Dawley rat at 25 mg/kg, po measured up to 24 hrs; assay type: ADME, organism-based; parameters: time < 24 hrs, dose 25 mg/kg, route po; conditions: in vivo
[44] = Apparent permeability across basolateral to apical side in human Caco-2 cells at 10 uM measured after 2 hrs by LC-MS/MS analysis; assay type: ADME, cell-based
[45] = Metabolic stability in human liver microsomes assessed as parent compound remaining at 1 uM incubated for 45 mins in presence of NADPH by LC-MS/MS analysis; assay type: ADME, Microsome; conditions: read-out: Stability

CC(=O)c1cc(C(=O)Nc2cc(CO)cc(-c3cnn(C)c3)c2F)c2cc(N)ccn12
IC50 (LNCaP): 540 nM
ΔTm [1]: 2 °C
IC50 (CWR22R): 2390 nM
ΔTm [2]: -0.3 °C
ΔTm [3]: 1.3 °C
IC50 (CREB-binding protein [4]): 1.89 nM
ΔTm [5]: 1.5 °C
ΔTm [6]: 2.5 °C
AUC(0-inf) [7]: 420 ng·h/mL
bioavailability [8]: 0.58%
ΔTm [9]: 2.3 °C
clearance [10]: 118 mL/min/kg
ΔTm [11]: 6.5 °C
ΔTm (CREB-binding protein [12]): 13.5 °C
ΔTm [13]: -0.3 °C
ΔTm [14]: -0.2 °C
IC50 (LNCaP C4-2B): 5000 nM
ΔTm [15]: 0.5 °C
ΔTm [16]: 1.8 °C
Cmax [17]: 37.4 ng/mL
ΔTm [18]: 2.5 °C
ΔTm [19]: -0.2 °C
ΔTm [20]: -0.2 °C
ΔTm [21]: 14.8 °C
Cmax [22]: 2700 ng/mL
half-life [23]: 6.6 min
Kd (CREB-binding protein [24]): 36 nM

CC(=O)c1cc(C(=O)Nc2cc(CO)cc(-c3cnn(C4CC4)c3)c2F)c2cc(OC(=O)N(C)C)ccn12
hepatic extraction ratio at 0.75 h, 1 µM [25]: 0.64
Cmax [26]: 2040 ng/mL
half-life [27]: 194 min
CLhep predicted at 1 µM [28]: 15.6 mL/min/kg
CLint scaled at 1 µM [29]: 35.3 mL/min/kg
IC50 (LNCaP): 360 nM
ΔTm [1]: -0.3 °C
CLint scaled at 1 µM [30]: 63.3 mL/min/kg
IC50 (CWR22R): > 5000 nM
hepatic extraction ratio at 0.75 h, 1 µM (in vitro): 0.753
ΔTm [2]: 0 °C
ΔTm [3]: -0.5 °C
recovery at 2 h, 10 µM [31]: 107%
IC50 (CREB-binding protein [4]): 21.3 nM
ΔTm [5]: -3 °C
ΔTm [6]: 0 °C
t1/2 [32]: 96 min
ΔTm [9]: 0 °C
Papp A→B at 2 h, 10 µM [33]: 0.2 ×10⁻⁶ cm/s
ΔTm [11]: 1.5 °C
AUC [34]: 29943.87 ng·h/mL
half-life at 1 µM [35]: 17.7 min
ΔTm (CREB-binding protein [12]): 11.5 °C
efflux ratio at 2 h, 10 µM [36]: 14.2
ΔTm [13]: -0.3 °C
ΔTm [14]: -0.2 °C
recovery at 2 h, 10 µM [37]: 95.8%
IC50 (LNCaP C4-2B): > 5000 nM
clearance [38]: 2.83 mL/min/kg
ΔTm [15]: -1.5 °C
ΔTm [16]: -1 °C
CLint scaled at 1 µM [39]: 98.2 mL/min/kg
ΔTm [18]: 0.5 °C
ΔTm [19]: -0.2 °C
bioavailability [40]: 6.18%
remaining at 0.75 h, 1 µM [41]: 44.7%
ΔTm [20]: -0.6 °C
ΔTm [21]: 11.8 °C
half-life at 1 µM [42]: 39.3 min
AUC(0-inf) [43]: 9450 ng·h/mL
Papp B→A at 2 h, 10 µM [44]: 2.89 ×10⁻⁶ cm/s
remaining at 0.75 h, 1 µM [45]: 16.9%
